Test results taken from patent US11001569B2, “6-membered heteroaromatic substituted cyanoindoline derivatives as NIK inhibitors” (Janssen Pharmaceutica NV, priority 2016, dated 2021).
Read-outs that look alike come from different tables or passages of the source.

Key:
[1] = system: JJN-3 (NIK translocated) multiple myeloma cells; assay: Antiproliferative activity on JJN-3 multiple myeloma cells (CellTiter-Glo); format: cell-based, human; settings: JJN-3 (NIK translocated) cells, 96 hr treatment, averaged values, read-out: JJN-3 Proliferation inhibition (IC50 (nM))
Protocol: (§1) Determination of Antiproliferative Activity on JJN-3 (NIK Translocated) and KMS12-BM (NIK WT) Multiple Myeloma Cells
(§2) All compounds tested were dissolved in DMSO and further dilutions were made in culture medium. Final DMSO concentration was 0.3% (v/v) in cell proliferation assays. Viability was assessed using CellTiter-Glo cell viability assay kit (Promega). […] Cells were routinely kept as suspension cells at 37° C. in a humidified 5% CO2 atmosphere. Cells were passaged at a seeding density of 0.2×10^6/ml twice a week. Cells were seeded in black tissue culture treated 96-well plates (Perkin Elmer). Densities used for plating ranged from 15000 (JJN3) to 20000 (KMS12BM) cells per well in a total volume of 135 μl medium. Drugs and/or solvents were added (15 μl) to a final volume of 150 μl. Following 96 hr of treatment, plates were removed from the incubator and allowed to equilibrate to room temperature for approx 10 min. 75 μl CellTiter-Glo reagent was added to each well that was then covered (Perkin Elmer Topseal) and shaken on plate shaker for 10 min. Luminescence was measured on a HTS Topcount (Perkin Elmer). […] For initial screening purposes, compounds were tested using a 9 point dilution curve (serial 1:3 dilutions). For each experiment, controls (containing no drug) and a blank incubation (containing cells read at the time of compound addition) were run in parallel. The blank value was subtracted from all control and sample values. For each sample, the mean value for cell growth (in relative light units) was expressed as a percentage of the mean value for cell growth of the control.

[2] = system: KMS12-BM (NIK WT) multiple myeloma cells; assay: Antiproliferative activity on KMS12-BM multiple myeloma cells (CellTiter-Glo); format: cell-based, human; settings: 96 hr treatment, averaged values, read-out: KMS-12 Proliferation inhibition (IC50 (nM))
Protocol: as §1, §2

[3] = system: P-IKKα levels in L363 (NIK translocated multiple myeloma) cells; assay: Effect of compounds on P-IKKα levels in L363 cells (Mesoscale sandwich immuno-assay); format: cell-based, human; settings: 2 hr treatment, averaged values, read-out: Inhibition of pIKKα_L-363 (IC50 (nM))
Protocol: Effect of Compounds on P-IKKα Levels in L363 (NIK Translocated Multiple Myeloma) Cells
All compounds tested were dissolved in DMSO and further dilutions were made in culture medium. Final DMSO concentration was 1% (v/v) in cell assays. The human L363 cells (ATCC) were cultured in RPMI 1640 medium supplemented with GlutaMax and 10% fetal calf serum (PAA). Cells were routinely maintained at densities of 0.2×10^6 cells per ml-1×10^6 cells per ml at 37° C. in a humidified 5% CO2 atmosphere. Cells were passaged twice a week splitting back to obtain the low density. Cells were seeded in 96 well plates (Nunc 167008) at 2×10^6 per ml media in a volume of 75 μl per well plus 25 μl 1 μg/ml recombinant human B-cell activating factor (BAFF/BLyS/TNFSF13B). Seeded cells were incubated at 37° C. in a humidified 5% CO2 atmosphere for 24 hr. Drugs and/or solvents were added (20 μl) to a final volume of 120 μl. Following 2 hr treatment plates were removed from the incubator and cell lysis was achieved by the addition of 30 μl 5× lysis buffer followed by shaking on a plate shaker at 4° C. for 10 min. At the end of this incubation lysed cells were centrifuged at 800×g for 20 min at 4° C. and the lysate was assessed for P-IKK levels by sandwich immuno-assay carried out in anti-rabbit antibody coated Mesoscale plates. Within an experiment, the results for each treatment were the mean of 2 replicate wells. For initial screening purposes, compounds were tested using an 8 point dilution curve (serial 1:3 dilutions). […] The blank incubation value was subtracted from all control and sample values. To determine the IC50 a sigmoidal curve was fitted to the plot of % inhibition of control P-IKKα levels versus Log10 compound concentration.

[4] = molecular target: recombinant human NF-kappaB-inducing Kinase (NIK/MAP3K14) (Homo sapiens, UniProt Q99558); assay: Inhibition of auto-phosphorylation of recombinant human NIK/MAP3K14 activity (AlphaScreen); format: biochemical; settings: 25 microM ATP, averaged over all measurements on all batches
Protocol: Pharmacological Part Biological assay A Inhibition of auto-phosphorylation of recombinant human NF-kappaB-inducing Kinase (NIK/MAP3K14) Activity (AlphaScreen®)
NIK/MAP3K14 auto-phosphorylation activity was measured using the AlphaScreen® (αscreen) format (Perkin Elmer). All compounds tested were dissolved in dimethyl sulfoxide (DMSO) and further dilutions were made in assay buffer. Final DMSO concentration was 1% (v/v) in assays. Assay buffer was 50 mM Tris pH 7.5 containing 1 mM EGTA (ethylene glycol tetraacetic acid), 1 mM DTT (dithiothreitol), 0.1 mM Na3VO4, 5 mM MgCl2, 0.01% Tween® 20. Assays were carried out in 384 well Alphaplates (Perkin Elmer). […] Incubations were initiated by addition of GST-tagged NIK/MAP3K14 enzyme, carried out for 1 h at 25° C. and terminated by addition of stop buffer containing anti-phospho-IKK Ser176/180 antibody. Protein A Acceptor and Glutathione-Donor beads were added before reading using an EnVision® Multilabel Plate Reader (Perkin Elmer). Signal obtained in the wells containing blank samples was subtracted from all other wells and IC50's were determined by fitting a sigmoidal curve to % inhibition of control versus Log10 compound concentration.

Chain of recombinant human NF-kappaB-inducing Kinase (NIK/MAP3K14) (Q99558 whole entry): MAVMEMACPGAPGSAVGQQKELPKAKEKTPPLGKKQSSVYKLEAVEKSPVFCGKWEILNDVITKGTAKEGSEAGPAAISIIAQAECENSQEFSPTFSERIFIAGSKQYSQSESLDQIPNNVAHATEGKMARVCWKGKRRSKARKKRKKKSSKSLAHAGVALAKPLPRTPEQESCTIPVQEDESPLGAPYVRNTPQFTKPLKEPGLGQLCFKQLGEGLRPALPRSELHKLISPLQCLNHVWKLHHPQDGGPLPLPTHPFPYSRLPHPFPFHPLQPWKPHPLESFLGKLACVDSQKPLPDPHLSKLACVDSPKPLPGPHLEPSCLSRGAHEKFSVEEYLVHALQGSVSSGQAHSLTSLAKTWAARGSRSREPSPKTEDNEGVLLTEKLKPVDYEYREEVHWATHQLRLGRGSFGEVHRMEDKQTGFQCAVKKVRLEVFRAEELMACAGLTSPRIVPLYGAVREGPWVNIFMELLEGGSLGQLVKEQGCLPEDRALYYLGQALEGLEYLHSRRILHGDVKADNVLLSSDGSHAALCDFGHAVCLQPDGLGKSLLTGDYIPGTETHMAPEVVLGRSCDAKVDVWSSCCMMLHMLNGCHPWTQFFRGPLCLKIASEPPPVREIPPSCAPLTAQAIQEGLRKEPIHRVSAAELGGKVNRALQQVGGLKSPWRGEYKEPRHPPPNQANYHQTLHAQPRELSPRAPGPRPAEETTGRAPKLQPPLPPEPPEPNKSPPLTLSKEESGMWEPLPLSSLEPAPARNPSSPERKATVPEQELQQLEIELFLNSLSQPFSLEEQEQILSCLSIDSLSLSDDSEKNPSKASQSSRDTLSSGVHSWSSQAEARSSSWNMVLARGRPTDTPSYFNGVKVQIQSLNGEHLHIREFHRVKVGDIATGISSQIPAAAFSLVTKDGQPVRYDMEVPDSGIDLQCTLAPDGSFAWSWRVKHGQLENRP

Row | IC50 [1] [nM] | IC50 [2] [nM] | IC50 [3] [nM] | IC50 [4] [nM] | IC50 ([1]; Homo sapiens, JJN-3, 96 h) [nM] | IC50 ([2]; Homo sapiens, KMS-12-BM, 96 h) [nM] | IC50 ([3]; Homo sapiens, L-363, 2 h) [nM] | melting point [°C] | Compound
1 | 12 | > 10000 | 6.9 | 7.4 | – | – | – | – | Cc1cnc(OC2CCN(C)CC2F)c(Nc2nccc(-c3cc(C#N)c4c(c3)[C@@](C)(CO)CN4)n2)c1 (mixture of isomers) [Compound 171]
2 | – | – | – | – | 79 | ~2690 | 81.3 | – | COc1ncccc1Nc1nccc(-c2cc(C#N)c3c(c2)C(C)(CO)CN3)n1 (stereo not drawn) [Compound 1]
3 | – | – | – | 4.5 | 282 | 5010 | 15.8 | – | Cc1cc(Nc2nccc(-c3cc(C#N)c4c(c3)[C@@](C)(CO)CN4)n2)c(=O)n(CCC2CC2)c1 [Compound 5i]
4 | – | – | – | 1.2 | 115 | 9550 | 3.7 | – | Cc1cc(Nc2nccc(-c3cc(C#N)c4c(c3)[C@@](C)(CO)CN4)n2)c(=O)n(CCN2CCOCC2)c1 [Compound 7i]
5 | – | – | – | 64.6 | – | – | 550 | – | CN1CCC(c2cc(Nc3nccc(-c4cc(C#N)c5c(c4)[C@@](C)(CO)CN5)n3)c(=O)n(CC3CC3)c2)CC1 [Compound 21i]
6 | – | – | – | 1.7 | 120 | > 10000 | 9.5 | – | CNC(=O)c1cc(Nc2nccc(-c3cc(C#N)c4c(c3)[C@@](C)(CO)CN4)n2)c(=O)n(CC2CC2)c1 [Compound 25i]
7 | – | – | – | 2.1 | 28 | > 10000 | 2.3 | – | Cc1cc(Nc2nccc(-c3cc(C#N)c4c(c3)[C@@](C)(CO)CN4)n2)c(=O)n(CC2COCCN2C)c1 (stereo partly drawn) [Compound 26i]
8 | – | – | – | 5.8 | 148 | > 10000 | 13.8 | – | Cc1cc(Nc2nccc(-c3cc(C#N)c4c(c3)C(C)(C)CN4)n2)c(=O)n(CCN2CC(F)C2)c1 [Compound 27i]
9 | – | – | – | 4.3 | 316 | ~8130 | 13.8 | – | CC(C)Oc1nc(P(C)(C)=O)ccc1Nc1nccc(-c2cc(C#N)c3c(c2)[C@@](C)(CO)CN3)n1 [Compound 57]
10 | – | – | – | 14.8 | 669 | 3160 | – | 220 | COc1ncccc1Nc1nccc(-c2cc(C#N)c3c(c2)C(C)(CN2CCNCC2)CN3)n1 (stereo not drawn) [Compound 111]
11 | – | – | – | 22.9 | 1820 | > 10000 | – | 146 | COc1ncccc1Nc1nccc(-c2cc(C#N)c3c(c2)C(C)(CNCCS(C)(=O)=O)CN3)n1 (stereo not drawn) [Compound 112]
12 | – | – | – | 34.7 | 5750 | > 10000 | – | 95 | COc1ncccc1Nc1nccc(-c2cc(C#N)c3c(c2)C(C)(CN2CCOCC2)CN3)n1 (stereo not drawn) [Compound 113]
13 | – | – | – | 32.4 | 3550 | > 10000 | – | 60 | COc1ncccc1Nc1nccc(-c2cc(C#N)c3c(c2)C(C)(CN(C)CCO)CN3)n1 (stereo not drawn) [Compound 114]
14 | – | – | – | 10 | 741 | 6310 | – | 203 | COc1ncccc1Nc1nccc(-c2cc(C#N)c3c(c2)C(C)(CNC(C)=O)CN3)n1 (stereo not drawn) [Compound 115]
15 | – | – | – | 85.1 | 2040 | > 10000 | – | 95 | COc1ncccc1Nc1nccc(-c2cc(C#N)c3c(c2)C(C)(COCCNC(C)C)CN3)n1 (stereo not drawn) [Compound 116]
16 | – | – | – | 45.7 | > 10000 | > 10000 | – | 108 | COc1ncccc1Nc1nccc(-c2cc(C#N)c3c(c2)C(C)(COCCN2CCOCC2)CN3)n1 (stereo not drawn) [Compound 117]
17 | – | – | – | 64.6 | 4570 | 4070 | – | 88 | COc1ncccc1Nc1nccc(-c2cc(C#N)c3c(c2)C(C)(COCCN2CCCC2)CN3)n1 (stereo not drawn) [Compound 118]
18 | – | – | – | 129 | 1290 | 2000 | – | 106 | COc1ncc(Cl)cc1Nc1nccc(-c2cc(C#N)c3c(c2)C(C)(COCCNC2CC2)CN3)n1 (stereo not drawn) [Compound 119]
19 | – | – | – | 79.4 | 631 | 1230 | – | 152 | COc1ncc(Cl)cc1Nc1nccc(-c2cc(C#N)c3c(c2)C(C)(COCCN2CCCC2)CN3)n1 (stereo not drawn) [Compound 120]
20 | – | – | – | 117 | 1410 | 2510 | – | 104 | COc1ncc(Cl)cc1Nc1nccc(-c2cc(C#N)c3c(c2)C(C)(COCCN2CCOCC2)CN3)n1 (stereo not drawn) [Compound 121]
21 | – | – | – | 9.5 | 478 | 4790 | – | 182 | COC[C@@]1(C)CNc2c(C#N)cc(-c3ccnc(Nc4cc(Cl)cnc4C)n3)cc21 [Compound 122]
22 | – | – | – | 9.8 | 166 | 891 | – | 270 | CC1(C)CNc2c(C#N)cc(-c3ccnc(Nc4cnc(N5CCOCC5)nc4)n3)cc21 [Compound 125]
23 | – | – | – | 148 | 2510 | > 10000 | – | 227 | Cc1ccnc(Nc2nccc(-c3cc(C#N)c4c(c3)C(C)(CO)CN4)n2)n1 (stereo not drawn) [Compound 126]
24 | – | – | – | 4.5 | ~7080 | > 10000 | – | 333 | Cc1cc(Nc2nccc(-c3cc(C#N)c4c(c3)C(C)(CO)CN4)n2)nc(C)n1 (stereo not drawn) [Compound 127]
25 | – | – | – | 6.3 | 209 | ~195 | – | 307 | CC1(CO)CNc2c(C#N)cc(-c3ccnc(Nc4cncnc4)n3)cc21 (stereo not drawn) [Compound 128]
26 | – | – | – | 1.8 | 562 | > 10000 | – | 223 | COc1nc(C)ncc1Nc1nccc(-c2cc(C#N)c3c(c2)[C@@](C)(CO)CN3)n1 [Compound 129]
27 | – | – | – | 18.2 | 2000 | > 10000 | – | 231 | COCCOc1nc(C)ncc1Nc1nccc(-c2cc(C#N)c3c(c2)[C@@](C)(CO)CN3)n1 [Compound 136]
28 | – | – | – | 18.2 | – | – | 51.3 | – | CNC(=O)c1ncc(Cl)cc1Nc1nccc(-c2cc(C#N)c3c(c2)C(C)(CO)CN3)n1 (stereo not drawn) [Compound 178]
29 | – | – | – | 93.3 | – | – | 1440 | – | CC1(CO)CNc2c(C#N)cc(-c3ccnc(Nc4cc(Cl)cnc4C(=O)N4CCCC4)n3)cc21 (stereo not drawn) [Compound 179]
30 | – | – | – | 5.2 | – | – | 25.1 | – | COc1ncccc1Nc1ncnc(-c2cc(C#N)c3c(c2)[C@@](C)(CO)CN3)n1 [Compound 181]
